Measurements published in article PMC8041284, “Tunable Methacrylamides for Covalent Ligand Directed Release Chemistry” (Journal of the American Chemical Society, 2021).
Where two headings read alike, the source gives them in different places.

Molecular target: BTK (Homo sapiens, UniProt Q06187)
Assay: biochemical
[1] = read-out: BTK inhibition (%), 0.75 uM BTK, […] probe 3l, 15 min preincubation

Sequence of BTK (Q06187 402-655 limits assumed): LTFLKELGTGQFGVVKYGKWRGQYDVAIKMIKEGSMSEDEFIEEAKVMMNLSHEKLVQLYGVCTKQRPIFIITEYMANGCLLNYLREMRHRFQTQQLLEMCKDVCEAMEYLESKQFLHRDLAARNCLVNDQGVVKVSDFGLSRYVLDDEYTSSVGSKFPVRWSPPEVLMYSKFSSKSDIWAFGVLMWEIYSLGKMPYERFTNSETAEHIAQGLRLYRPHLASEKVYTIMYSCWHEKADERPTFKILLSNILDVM

With Cc1onc(-c2ccccc2Cl)c1C(=O)N[C@@H]1C(=O)N2[C@@H]1SC(C)(C)[C@@H]2C(=O)O [PCM-0214695] the inhibition at 10 µM [1] was -5.4%.

Molecule CC(C)[C@H](O)C(=O)N[C@@H](C)C(=O)N[C@@H]1C(=O)N(C)CCc2ccccc21 [PCM-0214637] has an inhibition at 10 µM [1] of -3.1%.

In the case of C=C(C)C1CC=C(/C=N/O)CC1 (stereo not shown) [PCM-0216339], the inhibition at 10 µM [1] is reported as -2.3%.

Cc1cc(Nc2cc(Cl)nc(Oc3ccc([N+](=O)[O-])cc3)n2)n[nH]1 [PCM-0215861] gave an inhibition at 10 µM [1] of 12.4%.

For CN1CCC(=C2c3ccccc3CCn3c(C=O)cnc32)CC1 [PCM-0214821], the inhibition at 10 µM [1] was 2.1%.

For Fc1ccc2c(/C=C/c3nn[nH]n3)c[nH]c2c1 [PCM-0215746], the inhibition at 10 µM [1] was 4.6%.

Molecule O=C1CCC[C@@H]2[C@H]3CCC[N@+]4([O-])CCC[C@@H](CN12)[C@@H]34 [PCM-0094874] has an inhibition at 10 µM [1] of -8.6%.

Molecule CC1(C)CC[C@]2(C(=O)O)CC[C@]3(C)C(=CC[C@@H]4[C@@]5(C)CC[C@H](O)[C@@](C)(CO)[C@@H]5CC[C@]43C)[C@@H]2C1 [PCM-0215046] has an inhibition at 10 µM [1] of 15.6%.

In the case of Cc1cc(C(C)Nc2ccccc2)c2nc(N3CCOCC3)cc(=O)n2c1 (stereo not shown) [PCM-0095022], the inhibition at 10 µM [1] is reported as 10.3%.

Work on NC[C@@H]1O[C@H](O[C@H]2[C@@H](O)[C@H](O[C@@H]3[C@@H](O)[C@H](N)C[C@H](N)[C@H]3O[C@H]3O[C@H](CN)[C@@H](O)[C@H](O)[C@H]3N)O[C@@H]2CO)[C@H](N)[C@@H](O)[C@@H]1O [PCM-0095358] yielded an inhibition at 10 µM [1] of 4.3%.

With c1ccc(-c2[nH]ncc2-c2ccnc3ccccc23)nc1 [PCM-0095402] the inhibition at 10 µM [1] was 14.5%.

With NC(=S)N/N=C/c1ncccc1N [PCM-0095816] the inhibition at 10 µM [1] was -1.5%.

Molecule C=CCc1ccc(O)c(-c2ccc(O)c(CC=C)c2)c1 [PCM-0094855] has an inhibition at 10 µM [1] of 37.9%.

CN1[C@@H]2CC[C@H]1CC(OC(c1ccccc1)c1ccccc1)C2 (stereo partly shown) [PCM-0086292] gave an inhibition at 10 µM [1] of -3.1%.

For NCCCNCCCCNCCCN [PCM-0065483], the inhibition at 10 µM [1] was -26.9%.

C[C@@H](Oc1cc(-n2cnc3ccc(CN4CCN(C)CC4)cc32)sc1C(N)=O)c1ccccc1C(F)(F)F [PCM-0095237] gave an inhibition at 10 µM [1] of 0.7%.

Work on COc1cc([C@@H]2c3cc4c(cc3[C@@H](O[C@@H]3O[C@@H]5CO[C@@H](C)O[C@H]5[C@H](O)[C@H]3O)[C@H]3COC(=O)[C@H]23)OCO4)cc(OC)c1O [PCM-0086140] yielded an inhibition at 10 µM [1] of -2.8%.

CC1(C)O[C@@H]2[C@@H](CO[C@@]3(COS(N)(=O)=O)OC(C)(C)O[C@@H]23)O1 [PCM-0086260] was tested, and the inhibition at 10 µM [1] was -15.6%.

Work on C=CCc1ccc(OC(C)=O)c(OC)c1 [PCM-0216623] yielded an inhibition at 10 µM [1] of 8.5%.

CNC(=O)c1cnn(-c2nc(N)c3ncn([C@@H]4O[C@H](CO)[C@@H](O)[C@H]4O)c3n2)c1 [PCM-0216236] showed an inhibition at 10 µM [1] of 5.4%.

COc1cc2ncnc(Nc3cccc(Cl)c3F)c2cc1OC(=O)N1CCN(C)C[C@H]1C [PCM-0215575] gave an inhibition at 10 µM [1] of -19.3%.

For O=c1cc(CN2CCOCC2)occ1OCCCCCSc1ccnc2cc(C(F)(F)F)ccc12 [PCM-0095730], the inhibition at 10 µM [1] was -34.7%.

For Cc1cc(N2CCOCC2)ccc1Nc1nc(NC2CCCCC2)c2[nH]cnc2n1 [PCM-0215306], the inhibition at 10 µM [1] was 33.2%.

For C[C@@H]1CC[C@@]2(OC1)O[C@H]1C[C@H]3[C@@H]4CC=C5C[C@@H](O)C[C@@H](O)[C@]5(C)[C@H]4CC[C@]3(C)[C@H]1[C@@H]2C [PCM-0216451], the inhibition at 10 µM [1] was -20.8%.

With O=C1N=C(O)CN1/N=C/c1ccc(-c2ccc([N+](=O)[O-])cc2)o1 [PCM-0086748] the inhibition at 10 µM [1] was 28%.

CC1(C)S[C@@H]2[C@H](NC(=O)[C@H](NC(=O)N3CCNC3=O)c3ccccc3)C(=O)N2[C@H]1C(=O)O [PCM-0095627] was tested, and the inhibition at 10 µM [1] was 30.4%.

Oc1ccc(Cc2nc3c(Cc4ccccc4)nc(-c4ccc(O)cc4)cn3c2O)cc1 [PCM-0215560] gave an inhibition at 10 µM [1] of 91.1%.

In the case of Cc1cc(Nc2ncnc3ccc(NC4=NC(C)(C)CO4)cc23)ccc1Oc1ccn2ncnc2c1 [PCM-0215734], the inhibition at 10 µM [1] is reported as 71.7%.

N#CC(C#N)=Cc1ccc(O)c(O)c1 [PCM-0064867] gave an inhibition at 10 µM [1] of 54.5%.

Nc1nc2c(c(=O)[nH]1)N(C=O)C(CNc1ccc(C(=O)N[C@@H](CCC(=O)O)C(=O)O)cc1)CN2 (stereo partly shown) [PCM-0086396] gave an inhibition at 10 µM [1] of -17.9%.

Cc1cccc(C)c1NC(=O)c1cc(S(N)(=O)=O)c(Cl)cc1O [PCM-0215998] was tested, and the inhibition at 10 µM [1] was 23.2%.

NC(=O)Nc1sc(-c2ccc(F)cc2)cc1C(N)=O [PCM-0095452] gave an inhibition at 10 µM [1] of 96.6%.

C[C@H](C[C@H](O)[C@H]1OC1(C)C)C1=C2C[C@H](O)[C@H]3[C@@]4(C)CCC(=O)C(C)(C)[C@@H]4CC[C@]3(C)[C@@]2(C)CC1 [PCM-0216518] was tested, and the inhibition at 10 µM [1] was -24.7%.

COc1cc2oc(=O)ccc2c(OC)c1C[C@@H](O)C(C)(C)O [PCM-0216455] was tested, and the inhibition at 10 µM [1] was -13.1%.

With CC(=O)Nc1ccc(OC(=O)c2ccccc2OC(C)=O)cc1 [PCM-0216013] the inhibition at 10 µM [1] was 2.1%.

C[C@]12CCC(=O)C[C@@H]1CC[C@@H]1[C@@H]2CC[C@]2(C)[C@@H](O)CC[C@@H]12 [PCM-0214865] gave an inhibition at 10 µM (read-out: BTK inhibition (%)) of -21%.

In the case of O=C(O)/C=C/C(=O)O [PCM-0064603], the inhibition at 10 µM [1] is reported as -7.7%.

With CCCCCCCCCCCCCCCC(=O)O[C@@H]1[C@@H](O)[C@@H](O)[C@@H]([C@H](NC(=O)[C@@H]2C[C@@H](CCC)CN2C)[C@H](C)Cl)O[C@@H]1SC [PCM-0215167] the inhibition at 10 µM [1] was 73.2%.

In the case of O=C(O)c1cc2cccc([N+](=O)[O-])c2[nH]1 [PCM-0095778], the inhibition at 10 µM [1] is reported as 0.8%.

Molecule Cc1c(F)cc(C(=O)NC2CC2)cc1-c1ccc(C(=O)NCC(C)(C)C)cn1 [PCM-0095751] has an inhibition at 10 µM [1] of -14.5%.

Work on CCc1cncnc1N1CCN(Cc2nc3ccc(C(F)(F)F)cc3[nH]2)CC1 [PCM-0065022] yielded an inhibition at 10 µM [1] of -22.8%.

For C=C1C[C@@]23CC[C@H]4[C@@](C)(CCC[C@@]4(C)C(=O)O[C@@H]4O[C@H](CO)[C@@H](O)[C@H](O)[C@H]4O)[C@@H]2CC[C@]1(O[C@@H]1O[C@H](CO)[C@@H](O)[C@H](O[C@@H]2O[C@H](CO)[C@@H](O)[C@H](O)[C@H]2O)[C@H]1O[C@@H]1O[C@H](CO)[C@@H](O)[C@H](O)[C@H]1O)C3 [PCM-0215017], the inhibition at 10 µM [1] was 0.8%.

For C1=C/COCc2cc(ccc2OCCN2CCCC2)Nc2nccc(n2)-c2cccc(c2)COC/1 [PCM-0215268], the inhibition at 10 µM [1] was 71.7%.

With C[C@H]1C[C@H]2[C@@H]3C[C@H](F)C4=CC(=O)C=C[C@]4(C)[C@@]3(F)[C@@H](O)C[C@]2(C)[C@@]1(O)C(=O)CO [PCM-0216237] the inhibition at 10 µM [1] was 9%.

In the case of C[C@@H]1CC[C@H]2C(C)(C)C3CC12CC[C@@]3(C)O (stereo partly shown) [PCM-0215144], the inhibition at 10 µM [1] is reported as 8.6%.

With CC(=O)OCOC(=O)CN(CC(=O)OCOC(C)=O)c1ccccc1OCCOc1ccccc1N(CC(=O)OCOC(C)=O)CC(=O)OCOC(C)=O [PCM-0215314] the inhibition at 10 µM [1] was -27.8%.

Cc1oc2nc3c(c(NC(=O)CN4CCCC4=O)c2c1C)CCCC3 [PCM-0216053] gave an inhibition at 10 µM [1] of 12.4%.

With Cn1cc(-c2ccc(S(=O)(=O)n3ccc(/C=C/C(=O)Nc4ccccc4N)c3)cc2)cn1 [PCM-0215419] the inhibition at 10 µM [1] was 32.4%.

Cc1cc(NS(=O)(=O)c2ccc(N)cc2)nc(C)n1 [PCM-0216097] showed an inhibition at 10 µM [1] of 11%.

In the case of O=C(O)CC(C(=O)O)n1c(O)c(C2=c3cc(Br)ccc3=NC2=O)sc1=S (stereo not shown) [PCM-0216114], the inhibition at 10 µM [1] is reported as 3.1%.

Cc1ccc(NC(=S)NNc2c([N+](=O)[O-])cc(C(F)(F)F)cc2[N+](=O)[O-])cc1Cl [PCM-0215660] showed an inhibition at 10 µM (read-out: BTK inhibition (%)) of 90.3%.

O=C(NOCC(O)CO)c1cc(Br)c(F)c(F)c1Nc1ccc(I)cc1F (stereo not shown) [PCM-0095128] was tested, and the inhibition at 10 µM [1] was -19.3%.
